The values below come from article PMC9053583, “A novel series of phenolic temozolomide (TMZ) esters with 4 to 5-fold increased potency, compared to TMZ, against glioma cells irrespective of MGMT expression” (RSC Advances, 2020).

Read-outs that look alike come from different tables or passages of the source.

For one series, the system named is U87-MG cells. Description: CellTiter-Glo cytotoxicity against U87-MG cells. The format is cell-based. The conditions noted are these: Homo sapiens, U-87 MG, 144 hours incubation, IC50 ± SD (n = 3). On the procedure:
(§1) Apoptosis of glioma cells induced by TMZ, occurs at least 120 hours after treatment.[7] Consequently, cells were incubated for 144 hours with specified TMZ analogues in the in vitro investigations in order to obtain more reliable IC50 values.
(§2) 1321-N1 (human astrocytoma) was maintained in DMEM medium supplemented with 2 mM L-glutamine and 10% FBS. GOS-3, (human brain mixed astro-oligodendroglioma) was maintained in DMEM medium supplemented with 2 mM L-glutamine and 10% […]. U87-MG, (human glioblastoma) and SVGp12 (normal human astroglia) were maintained in EMEM medium supplemented with 2 mM L-glutamine, 1 mM sodium pyruvate and 10% FBS. All cell lines were incubated at 37 °C and 5% CO2 in a humidified incubator. Primary BTNW cultures were maintained in Ham's F10 nutrient mixture, containing 20 mM HEPES, 2 mM glutamine and 10% FBS. Primary cultures were incubated in a humidified incubator at 37 °C.
(§3) Cells were seeded in the appropriate media in each well of a Costar 96-well plate at a density of 5 × 10^2 immortalised cells; 2 × 10^3 (primary cells). The plates were incubated at 37 °C and 5% CO2 in a humidified incubator for 24 hours to allow cells to adhere. Each of the drugs tested were dissolved in DMSO to afford a 200 mM stock solution. The stock solutions were diluted with medium to afford the final working concentrations, ensuring DMSO concentration was no greater than 0.5% (v/v). Drug concentrations were added to the cells and incubated for 144 hours. After incubation, the drug concentrations were removed and replaced with 100 μL of CellTiter-Glo® and 100 μL of media. The luminescence of each well was measured on GENios Pro plate reader. The results for each of the drug concentrations were expressed as a percentage of the control wells. For cell lines, the regression equation for a polynomial line of best fit of order 2 was used to calculate the IC50. In the case of the in vitro model used in the present study, the IC50 was defined as the concentration of drug that results in a 50% reduction in oxyluciferin production. Primary culture cells were incubated with clinically relevant concentrations for 144 hours. Viability was expressed as a percentage of the control wells. Each experiment involving cell lines was carried out in triplicate of triplicates. Experiments using patient derived primary cultures were carried out in triplicate.
(§4) Initial screening of the 25 analogues was completed using the U87-MG cell line. The most promising analogues from the initial screening were taken forward and tested against the 1321-N1, GOS-3 and SVG-p12 cell lines. The results of all 4 cell lines were compiled and the analogues that were deemed to be the most promising drug candidates were tested against primary cultures at clinically relevant concentrations.
(In general: ATP-based viability assays read luminescence as a measure of living cells.)

In the next series the test system is 1321-N1. Briefly: CellTiter-Glo cytotoxicity against 1321-N1 cells. Type of series: cell-based. The conditions noted are these: Homo sapiens, 144 hours incubation, IC50 ± SD (n = 3). On the procedure:
as §1, §2, §3, §4

Another series relates to SVGp12. Description: CellTiter-Glo cytotoxicity against normal SVGp12 cell line. As to conditions: Homo sapiens, 144 hours incubation, IC50 ± SD (n = 3). Type of series: cell-based. How it is done:
as §1, §2, §3, §4

The test system of another series is GOS-3. Description: CellTiter-Glo cytotoxicity against GOS-3 cells. The format is cell-based. The conditions noted are these: Homo sapiens; 144 hours incubation, IC50 ± SD (n = 3). On the procedure:
as §1, §2, §3, §4

The nature of series [1]: Solubility in cell culture medium. The format is physicochemical. On the procedure: The maximum concentration that could be achieved in medium for amide analogues 4a and 4c was approximately 200 μM, at which IC50 values could not be generated and were also eliminated from further studies.
as §3

Setting [2] is: initial screening, CellTiter-Glo, read-out: IC50 against U87-MG cells.
[3] abbreviates: lead analogues (Table 2), read-out: IC50 U87-MG.

By IC50 is commonly meant the concentration that inhibits the measured activity by half. Broadly, the melting point is the temperature of the solid-liquid transition. Compound `Cn1nnc2c(C(=O)OCCc3ccccc3)ncn2c1=O` [Analogue 3c, Phenethyl 3-methyl-4-oxo-3,4-dihydroimidazo[5,1-d][1,2,3,5]tetrazine-8-carboxylate] yielded a melting point of 124 °C. For the same compound, in the series on U87-MG cells (setting [2]), the IC50 was 615 ± 96 µM.
Consider `CN(C)CCCOC(=O)c1ncn2c(=O)n(C)nnc12` [Analogue 3g, 3-(Dimethylamino)propyl 3-methyl-4-oxo-3,4-dihydroimidazo[5,1-d][1,2,3,5]tetrazine-8-carboxylate], for which the melting point was found to be 204 °C. Also, the IC50 in the series with U87-MG cells (setting [2]) was found to be 856 ± 20 µM.
For `CCOC(=O)c1ncn2c(=O)n(C)nnc12` [Analogue 3a, Ethyl 3-methyl-4-oxo-3,4-dihydroimidazo[5,1-d][1,2,3,5]tetrazine-8-carboxylate], the melting point is 130 °C. Moreover, the IC50 in the series on U87-MG cells (setting [2]) was 700 ± 109 µM.
As to `Cn1nnc2c(C(=O)O)ncn2c1=O` [TMZ acid, 3-methyl-4-oxo-3,4-dihydroimidazo[5,1-d][1,2,3,5]tetrazine-8-carboxylic acid], the concentration for half-maximal inhibition (IC50) came out at 596 ± 26 µM with 1321-N1; 316 ± 2 µM with SVGp12; 662 ± 42 µM with U87-MG cells (setting [2]); 662 ± 42 µM with U87-MG cells (setting [3]); 504 ± 30 µM in the series with GOS-3.
On to `Cn1nnc2c(C(=O)NCCc3ccccc3)ncn2c1=O` [Analogue 4b, 3-Methyl-4-oxo-N-phenethyl-3,4-dihydroimidazo[5,1-d] [1,2,3,5]tetrazine-8-carboxamide], for which the melting point was determined as 158 °C. Further, the IC50 with U87-MG cells (setting [2]) is 548 ± 48 µM.
Turning to `Cn1nnc2c(C(=O)NCc3ccc(Cl)cc3)ncn2c1=O` [Analogue 4k, N-(4-Chlorobenzyl)-3-methyl-4-oxo-3,4-dihydroimidazo[5,1-d][1,2,3,5]tetrazine-8-carboxamide], the melting point amounted to 148 °C. In the series with 1321-N1, this compound came in with an IC50 of more than 200 µM. In addition, in the series with SVGp12, it took 79 ± 6 µM to reach half-maximal inhibition (IC50). Moreover, the IC50 with U87-MG cells (setting [3]) stood at 138 ± 28 µM. In series [1], the “solubility in cell culture medium” value is “insoluble”. For the same compound, in the series with GOS-3, the IC50 was more than 200 µM.
`COc1ccc(CNC(=O)c2ncn3c(=O)n(C)nnc23)cc1` [Analogue 4i, N-(4-Methoxybenzyl)-3-methyl-4-oxo-3,4-dihydroimidazo[5,1-d][1,2,3,5]tetrazine-8-carboxamide] displayed a melting point of 193 °C. Moreover, the “solubility in cell culture medium” value in series [1] is “insoluble”.
For the compound `Cc1ccc(CNC(=O)c2ncn3c(=O)n(C)nnc23)cc1` [Analogue 4j, 3-Methyl-N-(4-methylbenzyl)-4-oxo-3,4-dihydroimidazo[5,1-d][1,2,3,5]tetrazine-8-carboxamide], the melting point was 152 °C. Further, in the series with U87-MG cells (setting [2]), the IC50 was determined as 139 ± 28 µM.
Turning to `Cn1nnc2c(C(=O)OCCc3ccc([N+](=O)[O-])cc3)ncn2c1=O` [Analogue 3d, 4-Nitrophenethyl 3-methyl-4-oxo-3,4-dihydroimidazo[5,1-d][1,2,3,5]tetrazine-8-carboxylate], the melting point turned out to be 187 °C. Besides, the “solubility in cell culture medium” value in series [1] was “insoluble”.
As to `COc1ccc(CCOC(=O)c2ncn3c(=O)n(C)nnc23)cc1` [Analogue 3e, 4-Methoxyphenethyl 3-methyl-4-oxo-3,4-dihydroimidazo[5,1-d][1,2,3,5]tetrazine-8-carboxylate], the melting point stood at 164 °C. Moreover, the “solubility in cell culture medium” value in series [1] was “insoluble”.
`CCCCCCOC(=O)c1ncn2c(=O)n(C)nnc12` [Analogue 3b, Hexyl 3-methyl-4-oxo-3,4-dihydroimidazo[5,1-d][1,2,3,5]tetrazine-8-carboxylate] yielded a melting point of 76 °C. For the same compound, in the series on 1321-N1, the IC50 came out at 269 ± 20 µM. This compound registered an IC50 in the series on SVGp12 of 182 ± 11 µM. Besides, the IC50 with U87-MG cells (setting [2]) stood at 409 ± 45 µM. Further, the IC50 with U87-MG cells (setting [3]) is 409 ± 45 µM. Moreover, half-maximal inhibition in the series with GOS-3 (IC50) required 269 ± 6 µM.
Regarding `COc1ccccc1OC(=O)c1ncn2c(=O)n(C)nnc12` [Analogue 3m, 2-Methoxyphenyl 3-methyl-4-oxo-3,4-dihydroimidazo[5,1-d][1,2,3,5]tetrazine-8-carboxylate], the melting point was found to be 165 °C. Also, the IC50 in the series on U87-MG cells (setting [2]) came to 576 ± 91 µM.
As to `CCCCCCNC(=O)c1ncn2c(=O)n(C)nnc12` [Analogue 4a, N-Hexyl-3-methyl-4-oxo-3,4-dihydroimidazo[5,1-d][1,2,3,5]tetrazine-8-carboxamide], the melting point was found to be 138 °C. The IC50 in the series on U87-MG cells (setting [2]) was more than 200 µM. Besides, in series [1], the “maximum concentration that could be achieved in medium” value was “approximately 200 μM” and the “solubility in cell culture medium” value is “insoluble”.
The compound `Cc1ccc(NC(=O)c2ncn3c(=O)n(C)nnc23)cc1` [Analogue 4g, 3-Methyl-4-oxo-N-(p-tolyl)-3,4-dihydroimidazo[5,1-d][1,2,3,5]tetrazine-8-carboxamide] yielded a melting point of 209 °C. Further, in series [1], the “solubility in cell culture medium” value is on record as “insoluble”.
For `COc1ccc(NC(=O)c2ncn3c(=O)n(C)nnc23)cc1` [Analogue 4d, N-(4-Methoxyphenyl)-3-methyl-4-oxo-3,4-dihydroimidazo[5,1-d][1,2,3,5]tetrazine-8-carboxamide] the same measures were 192 °C and “insoluble”.
`COc1ccccc1NC(=O)c1ncn2c(=O)n(C)nnc12` [Analogue 4h, N-(2-Methoxyphenyl)-3-methyl-4-oxo-3,4-dihydroimidazo[5,1-d][1,2,3,5]tetrazine-8-carboxamide] had a melting point of 193 °C. Moreover, in series [1], the “solubility in cell culture medium” value was “insoluble”.
`Cn1nnc2c(C(=O)Nc3ccc(C#N)cc3)ncn2c1=O` [Analogue 4f, N-(4-Cyanophenyl)-3-methyl-4-oxo-3,4-dihydroimidazo[5,1-d][1,2,3,5]tetrazine-8-carboxamide] returned a melting point of 234 °C. Besides, in series [1], the “solubility in cell culture medium” value is given as “insoluble”.
`Cn1nnc2c(C(=O)Nc3ccccc3)ncn2c1=O` [Analogue 4c, 3-Methyl-4-oxo-N-phenyl-3,4-dihydroimidazo[5,1-d][1,2,3,5]tetrazine-8-carboxamide] displayed a melting point of 189 °C. For the same compound, the IC50 in the series with U87-MG cells (setting [2]) is more than 200 µM. For the same compound, in series [1], the “maximum concentration that could be achieved in medium” value is given as “approximately 200 μM” and the “solubility in cell culture medium” value is recorded as “insoluble”.
Compound `COc1ccc(COC(=O)c2ncn3c(=O)n(C)nnc23)cc1` [Analogue 3f, 4-Methoxybenzyl 3-methyl-4-oxo-3,4-dihydroimidazo[5,1-d][1,2,3,5]tetrazine-8-carboxylate] had a melting point of 170 °C. Further, the “solubility in cell culture medium” value in series [1] is “insoluble”.
For `Cn1nnc2c(C(=O)Nc3ccc(Cl)cc3)ncn2c1=O` [Analogue 4e, N-(4-Chlorophenyl)-3-methyl-4-oxo-3,4-dihydroimidazo[5,1-d][1,2,3,5]tetrazine-8-carboxamide] the same measures were 200 °C and “insoluble”.
